US5840893A, “Compounds for treating infectious diseases” (priority 1996, dated 1998)
“Also recorded” adds a separate entry of the source.

What was measured:
HIV-1 = assay: Inhibition of HIV-1 replication in cultured macrophages (Table I); assay type: cell-based; conditions: Human immunodeficiency virus 1, Macrophage; 50% inhibition of viral growth, RT or p24, macrophages
Experimental: A quantitative measurement of the activity of the compounds of the invention to block the replication of HIV-1 in non-dividing cells can be determined by culture of a macrophage-tropic strain of HIV-1 on peripheral blood-derived macrophages. The cells are cultured for 5-6 days prior to infection in a medium consisting of DMEM supplemented with 10% type A/B human serum and 200 U/ml Macrophage Colony Stimulating Factor, with half the medium changed after 3 days, to reach a density of about 10^6 cells per 5 ml well. A macrophage-tropic viral stock may be grown on these cells. The concentration of infectious particles in the stock is estimated by measurement of p24 antigen concentration.
To test the effect of compounds of the invention on HIV- 1 infection in the above-described culture system, the medium is removed and replaced with medium containing HIV-1 at a concentration of 1 ng of p24 (10^4 TCID50 /ml (TCID=tissue culture infectious doses)) and a known concentration of the compound of the invention (the inhibitor). After 24 hours, the cultures are washed to remove non-adherent virus and the culture is re-fed with medium containing the inhibitor at the desired concentration. The amount of replication of HIV-1 is estimated by an assay of the reverse transcriptase activity or by an assay of the concentration of p24 antigen in the culture medium every 2-3 days throughout the post-infection period. In a preferred embodiment the anti-HIV potency of the candidate drug is measured by comparison of the concentration of reverse transcriptase (RT) or of p24 antigen in the medium of the treated and control cultures at the time of the peak of these values in non-treated control cultures, that is about day 5 or 6 post-infection. Repetition at various levels of inhibitor allows for the calculation of the concentration of inhibitor that achieves 50% inhibition of viral growth, IC50. Table I discloses the IC50 of various inhibitors.

monocyte cultures = assay: Cytotoxicity in monocyte cultures (LDH release, trypan blue exclusion); assay type: cell-based, human; conditions: up to 10 μM; LDH release and trypan blue exclusion

What does the source list for `CC(=O)c1cc(Nc2cc(C)[n+](C)c(N)n2)cc(C(C)=O)c1.[I-]` [Compound No. 2, 2-amino-4-(3,5-diacetylphenyl)amino-1,6-dimethylpyrimidinium iodide]?
IC50 (HIV-1): 1 nM; cytotoxic effect (monocyte cultures): without toxic effects; also recorded: no cytotoxic effect was observed
